Data reported in the NIST ThermoML archive (doi:10.1021/je400529k).

Legend:
[1] = xn = mol fraction of the nth substance listed; settings: 101 kPa, Liquid; for viscosity: Capillary tube (Ostwald / Ubbelohde) method; for mass density: Vibrating tube method
[2] = refractive index (Na D-line) (dimensionless); xn = mol fraction of the nth substance listed; settings: 101 kPa, Liquid, Standard Abbe refractometry

CCC1CCCCC1 [ethylcyclohexane] + C1C[C@@H]2[C@H]3CC[C@H](C3)[C@@H]2C1
Settings	mass density, [1] [kg/m3]	refractive index, [2]	viscosity, [1] [mPa·s]
293.15 K, x2 = 0	788.02	1.4319	0.845
293.15 K, x2 = 0.0997	803.52	1.4378	0.941
293.15 K, x2 = 0.2006	818.96	1.4437	1.052
293.15 K, x2 = 0.3001	834.08	1.4494	1.189
293.15 K, x2 = 0.4003	849.15	1.4551	1.344
293.15 K, x2 = 0.5001	863.99	1.4605	1.514
293.15 K, x2 = 0.6011	878.81	1.4667	1.726
293.15 K, x2 = 0.7	893.21	1.4717	1.965
293.15 K, x2 = 0.8001	907.54	1.4769	2.251
293.15 K, x2 = 0.8996	921.66	1.4824	2.593
298.15 K, x2 = 0	784.01	–	0.791
298.15 K, x2 = 0.0997	799.47	–	0.878
298.15 K, x2 = 0.2006	814.95	–	0.979
298.15 K, x2 = 0.3001	830.07	–	1.104
298.15 K, x2 = 0.4003	845.18	–	1.243
298.15 K, x2 = 0.5001	860.01	–	1.396
298.15 K, x2 = 0.6011	874.85	–	1.586
298.15 K, x2 = 0.7	889.26	–	1.8
298.15 K, x2 = 0.8001	903.61	–	2.055
298.15 K, x2 = 0.8996	917.75	–	2.358
303.15 K, x2 = 0	779.98	1.4276	0.743
303.15 K, x2 = 0.0997	795.44	1.4334	0.822
303.15 K, x2 = 0.2006	810.94	1.4389	0.914
303.15 K, x2 = 0.3001	826.06	1.4446	1.028
303.15 K, x2 = 0.4003	841.18	1.4506	1.155
303.15 K, x2 = 0.5001	856.03	1.4559	1.293
303.15 K, x2 = 0.6011	870.9	1.4617	1.464
303.15 K, x2 = 0.7	885.3	1.4674	1.656
303.15 K, x2 = 0.8001	899.67	1.4724	1.884
303.15 K, x2 = 0.8996	913.82	1.4776	2.155
308.15 K, x2 = 0	775.93	–	0.7
308.15 K, x2 = 0.0997	791.4	–	0.772
308.15 K, x2 = 0.2006	806.91	–	0.856
308.15 K, x2 = 0.3001	822.04	–	0.96
308.15 K, x2 = 0.4003	837.18	–	1.076
308.15 K, x2 = 0.5001	852.03	–	1.202
308.15 K, x2 = 0.6011	866.92	–	1.356
308.15 K, x2 = 0.7	881.34	–	1.53
308.15 K, x2 = 0.8001	895.72	–	1.735
308.15 K, x2 = 0.8996	909.89	–	1.976
313.15 K, x2 = 0	771.86	1.4225	0.661
313.15 K, x2 = 0.0997	787.34	1.4286	0.727
313.15 K, x2 = 0.2006	802.87	1.4343	0.804
313.15 K, x2 = 0.3001	818	1.4401	0.9
313.15 K, x2 = 0.4003	833.14	1.4458	1.005
313.15 K, x2 = 0.5001	848.02	1.4514	1.12
313.15 K, x2 = 0.6011	862.92	1.4572	1.261
313.15 K, x2 = 0.7	877.36	1.4625	1.417
313.15 K, x2 = 0.8001	891.76	1.4679	1.602
313.15 K, x2 = 0.8996	905.95	1.4732	1.82
318.15 K, x2 = 0	767.78	–	0.626
318.15 K, x2 = 0.0997	783.25	–	0.687
318.15 K, x2 = 0.2006	798.78	–	0.758
318.15 K, x2 = 0.3001	813.96	–	0.845
318.15 K, x2 = 0.4003	829.08	–	0.942
318.15 K, x2 = 0.5001	843.99	–	1.047
318.15 K, x2 = 0.6011	858.88	–	1.175
318.15 K, x2 = 0.7	873.35	–	1.317
318.15 K, x2 = 0.8001	887.8	–	1.485
318.15 K, x2 = 0.8996	901.99	–	1.682

C1C[C@@H]2[C@H]3CC[C@H](C3)[C@@H]2C1 [exo-tetrahydrodicyclopentadiene] + CC1CCCCC1
Settings	mass density, [1] [kg/m3]	refractive index, [2]	viscosity, [1] [mPa·s]
293.15 K, x1 = 0.1	788.79	1.4298	0.842
293.15 K, x1 = 0.2009	807.71	1.4376	0.959
293.15 K, x1 = 0.301	825.81	1.4447	1.102
293.15 K, x1 = 0.3999	843.02	1.4515	1.267
293.15 K, x1 = 0.4999	859.94	1.4586	1.454
293.15 K, x1 = 0.5992	876.09	1.4646	1.67
293.15 K, x1 = 0.7004	891.98	1.4709	1.925
293.15 K, x1 = 0.7995	906.95	1.4768	2.22
293.15 K, x1 = 0.9011	921.82	1.482	2.582
293.15 K, x1 = 1	935.72	1.4874	2.992
298.15 K, x1 = 0.1	784.53	–	0.785
298.15 K, x1 = 0.2009	803.5	–	0.892
298.15 K, x1 = 0.301	821.64	–	1.023
298.15 K, x1 = 0.3999	838.89	–	1.171
298.15 K, x1 = 0.4999	855.86	–	1.34
298.15 K, x1 = 0.5992	872.05	–	1.534
298.15 K, x1 = 0.7004	887.96	–	1.762
298.15 K, x1 = 0.7995	902.99	–	2.026
298.15 K, x1 = 0.9011	917.88	–	2.347
298.15 K, x1 = 1	931.84	–	2.71
303.15 K, x1 = 0.1	780.25	1.4253	0.735
303.15 K, x1 = 0.2009	799.26	1.4324	0.833
303.15 K, x1 = 0.301	817.46	1.4402	0.952
303.15 K, x1 = 0.3999	834.75	1.4472	1.087
303.15 K, x1 = 0.4999	851.75	1.4539	1.239
303.15 K, x1 = 0.5992	867.99	1.4599	1.416
303.15 K, x1 = 0.7004	883.94	1.4662	1.621
303.15 K, x1 = 0.7995	899.01	1.4722	1.857
303.15 K, x1 = 0.9011	913.94	1.478	2.146
303.15 K, x1 = 1	927.94	1.4831	2.467
308.15 K, x1 = 0.1	775.95	–	0.692
308.15 K, x1 = 0.2009	795.01	–	0.781
308.15 K, x1 = 0.301	813.26	–	0.89
308.15 K, x1 = 0.3999	830.6	–	1.013
308.15 K, x1 = 0.4999	847.64	–	1.151
308.15 K, x1 = 0.5992	863.93	–	1.312
308.15 K, x1 = 0.7004	879.91	–	1.497
308.15 K, x1 = 0.7995	895.01	–	1.709
308.15 K, x1 = 0.9011	910	–	1.967
308.15 K, x1 = 1	924.02	–	2.255
313.15 K, x1 = 0.1	771.64	1.4198	0.652
313.15 K, x1 = 0.2009	790.75	1.4276	0.733
313.15 K, x1 = 0.301	809.05	1.4351	0.834
313.15 K, x1 = 0.3999	826.43	1.4421	0.947
313.15 K, x1 = 0.4999	843.53	1.449	1.074
313.15 K, x1 = 0.5992	859.84	1.4549	1.218
313.15 K, x1 = 0.7004	875.88	1.4617	1.388
313.15 K, x1 = 0.7995	891.03	1.4672	1.579
313.15 K, x1 = 0.9011	906.04	1.4732	1.81
313.15 K, x1 = 1	920.11	1.4786	2.069
318.15 K, x1 = 0.1	767.31	–	0.616
318.15 K, x1 = 0.2009	786.48	–	0.691
318.15 K, x1 = 0.301	804.83	–	0.783
318.15 K, x1 = 0.3999	822.26	–	0.887
318.15 K, x1 = 0.4999	839.4	–	1.003
318.15 K, x1 = 0.5992	855.75	–	1.135
318.15 K, x1 = 0.7004	871.84	–	1.29
318.15 K, x1 = 0.7995	887.03	–	1.463
318.15 K, x1 = 0.9011	902.08	–	1.672
318.15 K, x1 = 1	916.18	–	1.907
